According to the supplement of paper PMC11061612:

Tests used:
[1] = test system: KGN (Other Solid Carcinomas); assay: Bliss excess, mean over the matrix (fraction); higher = more synergy
Procedure, shortened: (§1)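 Bliss excess equals the observed combination effect minus the expected value EA + EB − EA·EB, where EA and EB are the effects of each agent alone. Combination Emax is the second-highest inhibition within the matrix. Inhibition was scaled from CellTiter-Glo 2.0 luminescence, with 0 set by vehicle wells and 1 by blank wells, after 72 hours of two-drug dosing of cells plated in 1536-well plates.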

SK-N-AS (Neuroblastoma) [2] = assay: as above
Procedure, shortened: as §1

[3] = test system: ME-180 (Cervical Carcinoma); assay: as above
Procedure, shortened: as §1

[4] = test system: NCI-H522 (Lung Adenocarcinoma); assay: as above
Procedure, shortened: as §1

[5] = test system: SNU-387 (Hepatocellular Carcinoma); assay: as above
Procedure, shortened: as §1

[6] = test system: MOG-G-UVW (Low Grade Glioma); assay: combination Emax (second highest fraction inhibited in the dose matrix, 72 h); higher = more inhibition; extreme values may be limits of the assay
Procedure, shortened: as §1

[7] = test system: KGN (Other Solid Carcinomas); assay: as above
Procedure, shortened: as §1

SK-N-AS (Neuroblastoma) [8] = assay: as above
Procedure, shortened: as §1

[9] = test system: NCI-H1993 (Lung Adenocarcinoma); assay: as above
Procedure, shortened: as §1

[10] = test system: KMRC-1 (Kidney Carcinoma); assay: as above
Procedure, shortened: as §1

[11] = test system: ME-180 (Cervical Carcinoma); assay: as above
Procedure, shortened: as §1

[12] = test system: NCI-H522 (Lung Adenocarcinoma); assay: as above
Procedure, shortened: as §1

[13] = test system: EFO-21 (Ovarian Carcinoma); assay: as above
Procedure, shortened: as §1

[14] = test system: A4-Fuk (B-Lymphoblastic Leukemia); assay: as above
Procedure, shortened: as §1

[15] = test system: Mo-T (Other Blood Carcinomas); assay: as above
Procedure, shortened: as §1

[16] = test system: MDA-MB-453 (Breast Carcinoma); assay: as above
Procedure, shortened: as §1

[17] = test system: NCI-H1355 (Lung Adenocarcinoma); assay: as above
Procedure, shortened: as §1

[18] = test system: MOLT-4 (T-Lymphoblastic Leukemia); assay: as above
Procedure, shortened: as §1

[19] = test system: SW872 (Other Solid Carcinomas); assay: as above
Procedure, shortened: as §1

[20] = test system: SKN (Other Solid Carcinomas); assay: as above
Procedure, shortened: as §1

SMILES	Bliss excess [1]	Bliss excess (SK-N-AS (Neuroblastoma) [2])	Bliss excess [3]	Bliss excess [4]	Bliss excess [5]	combination Emax [6]	combination Emax [7]	combination Emax (SK-N-AS (Neuroblastoma) [8])	combination Emax [9]	combination Emax [10]	combination Emax [11]	combination Emax [12]	combination Emax [13]	combination Emax [14]	combination Emax [15]	combination Emax [16]	combination Emax [17]	combination Emax [18]	combination Emax [19]	combination Emax [20]
Cc1cc2ncnn2cc1Nc1ncc2c(n1)n(C1CCOCC1)c(=O)n2C [AZD7648] + CCN(CCO)CCCOc1ccc2c(Nc3cc(CC(=O)Nc4cccc(F)c4)[nH]n3)ncnc2c1 [AZD2811] (first compound max 10 µM, 7x7, partner max 1 µM)	-0.0649	-0.0011	-0.0485	0.0156	-0.0345	0.686	0.722	0.46	0.573	0.267	0.389	0.213	0.297	0.699	0.37	0.362	0.519	0.965	0.271	0.282
Cc1cc2ncnn2cc1Nc1ncc2c(n1)n(C1CCOCC1)c(=O)n2C [AZD7648] + CN(C)CCCOc1ccc(-c2ccc3ncc4c(c3c2)n(C2CCOCC2)c(=O)n4C)cn1 [AZD0156] (first compound max 10 µM, 7x7, partner max 1 µM)	-0.0424	-0.008	-0.0167	-0.0127	-0.0188	0.379	0.661	0.245	0.517	0.24	0.326	0.164	0.332	0.575	0.3	0.325	0.482	0.246	0.264	0.264
Cc1cc2ncnn2cc1Nc1ncc2c(n1)n(C1CCOCC1)c(=O)n2C [AZD7648] + COc1cc([C@@H]2c3cc4c(cc3[C@@H](O[C@@H]3O[C@@H]5CO[C@@H](C)O[C@H]5[C@H](O)[C@H]3O)[C@H]3COC(=O)[C@H]23)OCO4)cc(OC)c1O [Etoposide] (first compound max 10 µM, 7x7, partner max 10 µM)	0.114	0.0684	0.12	0.0178	-0.0126	0.9	0.863	0.472	0.79	0.478	0.941	0.339	0.438	0.937	0.909	0.497	0.535	1	0.817	0.784
Cc1cc2ncnn2cc1Nc1ncc2c(n1)n(C1CCOCC1)c(=O)n2C [AZD7648] + C[C@@H]1COCCN1C2=NC(=NC(=C2)C3(CC3)[S@](=N)(=O)C)C4=C5C=CNC5=NC=C4 [AZD6738] (first compound max 10 µM, 7x7, partner max 10 µM)	0.0439	0.0381	-0.002	0.0231	-0.0236	0.795	0.873	0.938	0.665	0.518	0.442	0.193	0.488	0.765	0.569	0.832	0.661	1	0.496	0.47
Cc1cc2ncnn2cc1Nc1ncc2c(n1)n(C1CCOCC1)c(=O)n2C [AZD7648] + O=C(c1cc(Cc2n[nH]c(=O)c3ccccc23)ccc1F)N1CCN(C(=O)C2CC2)CC1 [Olaparib] (first compound max 10 µM, 7x7, partner max 10 µM)	-0.0384	-0.0337	-0.0432	-0.0308	-0.0303	0.316	0.601	0.102	0.331	0.184	0.154	0.17	0.264	0.428	0.382	0.281	0.297	0.233	0.11	0.131
Cc1nc(Nc2ncc(C(=O)Nc3c(C)cccc3Cl)s2)cc(N2CCN(CCO)CC2)n1 [Dasatinib] + CC(=O)Nc1cccc(-n2c(=O)n(C3CC3)c(=O)c3c(Nc4ccc(I)cc4F)n(C)c(=O)c(C)c32)c1 [Trametinib] (first compound max 2 µM, 7x7, partner max 1 µM)	-0.0643	0.0361	0.0171	-0.0082	0.0213	0.677	0.8	0.558	0.69	0.739	0.476	0.251	0.479	0.848	0.137	0.224	0.482	0.424	0.566	0.683
